The values below are quoted from earlier work in US20120269871A1, “SOLID STATE FORMS OF RASAGILINE SALTS” (ACTAVIS GROUP PTC EHF, priority 2009, published 2012).

On to `C#CCN[C@@H]1CCc2ccccc21.CS(=O)(=O)O` [Rasagiline mesylate], for which the solubility in ethanol entry (solvent: ethanol) is on record as “freely soluble”. The solubility in isopropanol result (solvent: isopropanol) is reported as “sparingly soluble”. For the same compound, the solubility in water entry (solvent: water) is recorded as “freely soluble”.
